The nature of the test: Comparison of pure TQ with Nigella sativa oil. To be noted: administration of pure TQ. On the procedure:
Nevertheless, some embodiments of the invention may include N. sativa oil and/or its essential oil, either as the sole or primary active or in combination with EPA and/or GLA. […] Thus, N. sativa essential oil may provide a therapeutic or prophylactic effect in some embodiments of the invention, particularly in those embodiments in which one or more other actives (e.g., EPA, GLA, etc.) are also administered. Similarly, embodiments of the invention may include derivatives and/or precursors of TQ, including polymers of TQ.

The structures appear in SMILES notation.

For `CC1=CC(=O)C(C(C)C)=CC1=O` [TQ, 2-isopropyl-5-methylbenzo-1,4-quinone], the “effectiveness relative to Nigella sativa oil” value was “more effective than the administration of Nigella sativa oil”.

These data come from patent US20140213558A1, “TREATMENT OF INFLAMMATORY DISEASE OR DISORDER AND COMPOSITIONS THEREFOR” (CREDE OILS (PTY) LTD, priority 2011, published 2014).
